Consider five molecules from article PMC8055690, “Flavonoids increase melanin production and reduce proliferation, migration and invasion of melanoma cells by blocking endolysosomal/melanosomal TPC2” (Scientific Reports, 2021).

Assay [1] addresses T1, two-pore channel 2 (hTPC2) (Homo sapiens, UniProt Q8NHX9).
T1 construct: gene TPCN2; hTPC2-YFP stably expressed in HEK293 cells
Put plainly: endolysosomal patch-clamp, block of PI([…])P2-evoked current. Format: biochemical. For orientation: In patch-clamp work, channel activity is measured electrically.

The target of assay [2] is T1, two-pore channel 2 (hTPC2). Nature of the assay: endolysosomal patch-clamp, single concentration […]. Format: cell-based.

Molecules are shown by their SMILES.

T1 sequence (Q8NHX9 whole entry): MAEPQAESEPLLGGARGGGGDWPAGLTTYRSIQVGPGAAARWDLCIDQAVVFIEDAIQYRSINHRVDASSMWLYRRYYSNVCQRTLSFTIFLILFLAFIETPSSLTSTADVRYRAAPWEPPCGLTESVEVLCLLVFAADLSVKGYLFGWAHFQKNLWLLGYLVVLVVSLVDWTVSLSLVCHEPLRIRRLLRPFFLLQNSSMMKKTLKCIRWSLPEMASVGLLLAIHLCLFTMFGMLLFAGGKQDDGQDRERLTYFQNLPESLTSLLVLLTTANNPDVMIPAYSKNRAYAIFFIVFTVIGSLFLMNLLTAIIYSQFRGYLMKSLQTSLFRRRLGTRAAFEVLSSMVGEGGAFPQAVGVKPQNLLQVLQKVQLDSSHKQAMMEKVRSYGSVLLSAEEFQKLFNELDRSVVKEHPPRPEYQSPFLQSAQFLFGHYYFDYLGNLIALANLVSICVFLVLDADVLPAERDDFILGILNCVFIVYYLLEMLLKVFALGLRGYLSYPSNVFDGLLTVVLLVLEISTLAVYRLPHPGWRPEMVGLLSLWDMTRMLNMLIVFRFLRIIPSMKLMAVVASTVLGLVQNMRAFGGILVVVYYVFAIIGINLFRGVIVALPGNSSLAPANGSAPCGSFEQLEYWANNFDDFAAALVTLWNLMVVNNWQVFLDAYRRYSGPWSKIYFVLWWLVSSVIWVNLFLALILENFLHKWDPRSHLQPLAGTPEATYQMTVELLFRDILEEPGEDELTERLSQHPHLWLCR

One may read the IC50 as the point on the concentration scale where inhibition reaches its midpoint. A high value points to a need for much substance. Molecule `COc1ccc(-c2coc3cc(O)cc(O)c3c2=O)cc1O` [MT-8, pratensein] yielded an IC50 in assay [1] of 2.6 ± 0.3 µM.

The molecule `O=C1C[C@@H](c2ccc(O)cc2)Oc2cc(O)cc(O)c21` [MT-16, naringenin] came in with an IC50 in assay [1] of 74 ± 9 µM.

`COc1ccc(-c2coc3cc(O)cc(O)c3c2=O)cc1` [TR-9]: the “endolysosomal patch-clamp, single concentration 10 μM” value in assay [2] is “TR-9 and TR-12 which showed variable effects on melanin generation also proved to be less efficacious inhibitors of hTPC2”.

Turning to `O=C1C[C@@H](c2ccccc2)Oc2cc(O)cc(O)c21` [TR-12], the “endolysosomal patch-clamp, single concentration 10 μM” value in assay [2] is “TR-9 and TR-12 which showed variable effects on melanin generation also proved to be less efficacious inhibitors of hTPC2”.

As to `COc1ccc([C@@H]2COc3c(ccc(O)c3OC)C2)c(OC)c1O` [UM-9, duartin], the IC50 in assay [1] is 9.5 ± 2.8 µM.
